Test results as given in ChEMBL document CHEMBL1201862, “PubChem BioAssay data set” (2004).
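Compound exposure: 48 hours, 5 concentrations, 96-well plates. At the GI50, growth is halved.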 The source made the active and inactive calls. Cut-off read from the data, not from the text of the source: active = GI50 up to about 1.1 µM and inactive = higher.

What was measured:
Assay in all cases: NCI tumour cell line growth inhibition, 48 h
COLO 205 = test system: COLO 205
HL-60 = test system: HL-60
SF-268 = test system: SF-268
HOP-62 = test system: HOP-62
A549 = test system: A549
SN12C = test system: SN12C
NCI-H226 = test system: NCI-H226
UACC-62 = test system: UACC-62
786-0 = test system: 786-0
Malme-3M = test system: Malme-3M
U-251 = test system: U-251
SNB-75 = test system: SNB-75
NCI-H23 = test system: NCI-H23
OVCAR-8 = test system: OVCAR-8
SK-MEL-2 = test system: SK-MEL-2
HOP-92 = test system: HOP-92
IGROV-1 = test system: IGROV-1
SF-539 = test system: SF-539
K562 = test system: K562
SK-OV-3 = test system: SK-OV-3

Measured: GI50

Cc1ccc(NC(=O)CC(=O)N2N=C(N3CCCCC3)CC2c2ccccc2)cc1 (configuration not stated)
inactive: COLO 205 > 100 µM | HL-60 > 100 µM | SF-268 > 100 µM | HOP-62 > 100 µM | A549 > 100 µM | SN12C > 100 µM | NCI-H226 > 100 µM | UACC-62 > 100 µM | 786-0 > 100 µM | Malme-3M > 100 µM | U-251 > 100 µM | SNB-75 > 100 µM | NCI-H23 > 100 µM | OVCAR-8 > 100 µM | SK-MEL-2 > 100 µM | HOP-92 > 100 µM | IGROV-1 > 100 µM

CC1=NN(C(=O)CC(=O)NC(=O)CC(=O)Nc2ccccc2F)C(=O)C1/N=N/c1ccc([N+](=O)[O-])cc1 (configuration not stated)
inactive: COLO 205 31.2 µM | SF-268 82.2 µM | HOP-62 56.5 µM | SF-539 > 100 µM | A549 35 µM | SN12C > 100 µM | NCI-H226 33.1 µM | K562 28.1 µM | UACC-62 55.3 µM | 786-0 27.7 µM | Malme-3M 39 µM | U-251 21.3 µM | SNB-75 34.2 µM | NCI-H23 51.9 µM | OVCAR-8 47.6 µM | SK-MEL-2 > 100 µM | SK-OV-3 45.3 µM | HOP-92 51.4 µM | IGROV-1 52 µM

O=c1c2c(-c3ccccc3)onc2n(-c2ccccc2)c(=O)n1-c1ccccc1
inactive: COLO 205 > 100 µM | SF-268 30.1 µM | HOP-62 21.8 µM | SF-539 > 100 µM | A549 > 100 µM | SN12C > 100 µM | NCI-H226 26.1 µM | K562 > 100 µM | UACC-62 14.5 µM | 786-0 > 100 µM | Malme-3M 17.5 µM | U-251 > 100 µM | SNB-75 27.8 µM | NCI-H23 19 µM | OVCAR-8 17.5 µM | SK-MEL-2 11 µM | SK-OV-3 > 100 µM | HOP-92 > 100 µM | IGROV-1 22.5 µM

CC(=O)OCC1OC(n2cc(I)c(=O)[nH]c2=O)C(OC(C)=O)C(OC(C)=O)C1OC(C)=O (configuration not stated)
inactive: COLO 205 > 100 µM | HL-60 > 100 µM | SF-268 > 100 µM | HOP-62 > 100 µM | A549 > 100 µM | SN12C > 100 µM | NCI-H226 > 100 µM | K562 > 100 µM | UACC-62 > 100 µM | 786-0 > 100 µM | Malme-3M > 100 µM | U-251 > 100 µM | SNB-75 82.8 µM | NCI-H23 > 100 µM | OVCAR-8 > 100 µM | SK-MEL-2 > 100 µM | SK-OV-3 > 100 µM | HOP-92 > 100 µM | IGROV-1 > 100 µM

CC(=O)Nc1ccc2cc3c(nc2n1)c1cccnc1n3S(=O)(=O)c1ccccc1
inactive: COLO 205 > 100 µM | HL-60 > 100 µM | SF-268 > 100 µM | HOP-62 > 100 µM | A549 > 100 µM | SN12C > 100 µM | NCI-H226 > 100 µM | K562 > 100 µM | UACC-62 > 100 µM | 786-0 8.02 µM | Malme-3M > 100 µM | U-251 > 100 µM | SNB-75 59.6 µM | NCI-H23 10.5 µM | OVCAR-8 > 100 µM | SK-MEL-2 > 100 µM | SK-OV-3 > 100 µM | HOP-92 > 100 µM | IGROV-1 > 100 µM

C#CCOCn1cnc2c(S)ncnc21
inactive: COLO 205 > 100 µM | HL-60 > 100 µM | SF-268 > 100 µM | HOP-62 > 100 µM | A549 > 100 µM | SN12C > 100 µM | NCI-H226 > 100 µM | K562 > 100 µM | UACC-62 > 100 µM | 786-0 > 100 µM | Malme-3M > 100 µM | U-251 > 100 µM | SNB-75 13.6 µM | NCI-H23 > 100 µM | OVCAR-8 > 100 µM | SK-MEL-2 > 100 µM | SK-OV-3 > 100 µM | HOP-92 > 100 µM | IGROV-1 > 100 µM
